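48-hour exposure; five concentrations; linearly interpolated endpoints. GI50: concentration for 50% inhibition of growth. The concentration for full growth arrest is given as TGI.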

Assay in all cases: growth of human tumour cells (NCI), 48 h
In assay [1] the test system is COLO 205 colon.
Assay [2] deals with SNB-19 CNS.
In assay [3] the test system is MOLT-4 leukemia.
Assay [4] has as its system OVCAR-5 ovarian.
The test system of assay [5] is T-47D breast.
The test system of assay [6] is SR leukemia.
The test system of assay [7] is U251 CNS.
For assay [8], the system named is UACC-257 melanoma.
Assay [9] has as its system OVCAR-8 ovarian.
Assay [10] deals with HCC-2998 colon.

For the molecule `COC(NC(N)=O)C(=O)O` (centres undefined), the TGI in [1], in assay [2], in assay [3], in assay [4], in [5] and in [6] was above 100 µM each time. For the same molecule, the TGI in assay [7], in assay [8] and in assay [9] was above 100 µM each time.

With `Cc1ccc(-c2c(C#N)[n+](=O)c3cc(F)c(F)cc3n2[O-])cc1`, the GI50 in [1] is 19.5 µM; in [2], 18.6 µM; in assay [3], 0.851 µM; in assay [4] it was 3.91 µM; in [5] it was 28.4 µM; in assay [10], 10.3 µM. The GI50 in [7] is 1.43 µM; in assay [8], 23.5 µM; in assay [9], 20.8 µM. The TGI in assay [1] worked out at 38.6 µM; in assay [2] it was 34.9 µM; in assay [3] it was 2.71 µM; in assay [4], 15.9 µM; in assay [5] it was 67.5 µM; in assay [10], 23.5 µM. In addition, the results for the TGI in assay [7], in assay [8] and in assay [9] were 2.94 µM, 48.7 µM and 40.3 µM, respectively.

For the molecule `O=C1C=CC(=O)C2C1Cc1ccccc1C2c1ccccc1` (centres undefined), the TGI in assay [1] was 35.5 µM; in [2], above 100 µM; in [3] it was 93.2 µM; in assay [4], above 100 µM; in [6], 59.1 µM; in assay [10], 60 µM. Also, the TGI stood at 33 µM in assay [7], 70.2 µM in assay [8] and 78 µM in [9].

On to `COc1cccc(Sc2ccc([N+](=O)[O-])c3no[n+]([O-])c23)c1`, for which the GI50 was 2.49 µM in assay [1]; 35 µM in [2]; 4.27 µM in [3]; 8.31 µM in assay [4]; 3.36 µM in [5]; 22.3 µM in assay [10]. In addition, the GI50 in assay [7] is 13.1 µM; in [8], 14 µM; in assay [9], 6.22 µM. Besides, the TGI was 7.31 µM in assay [1]; above 88.3 µM in assay [2]; 16.5 µM in [3]; 20.2 µM in [4]; 14.4 µM in assay [5]; 46.3 µM in [10]. Moreover, the values for the TGI in assay [7], in assay [8] and in assay [9] were 30.3 µM, 29.9 µM and 24.8 µM, respectively.

Turning to `O=C(Nc1ccc2ncnc(Nc3ccc(Oc4cccc(F)c4)c(Cl)c3)c2c1)c1ccc(CN2CCOCC2)cc1`, the GI50 in assay [1] was 2.56 µM; in [2], 3.53 µM; in assay [3], 1.8 µM; in [4] it was 4.5 µM; in assay [5], 1.09 µM; in assay [10], 3.14 µM. Further, the figures for the GI50 in assay [7], in assay [8] and in assay [9] were 2.96 µM, 2.36 µM and 2.34 µM, respectively. Further, the TGI in assay [1] was 8.34 µM; in assay [2], above 100 µM; in [3], 4.98 µM; in [4], 23.4 µM; in [5] it was 4.2 µM; in [10] it was 18.6 µM. Moreover, the values for the TGI in [7], in assay [8] and in assay [9] were 17.7 µM, 7.1 µM and 7.69 µM, respectively.

On to `COc1ccc2c3c(c(C(=O)O)oc13)CCC2`, for which the TGI in assay [1], in assay [2], in [3], in assay [4], in [6] and in assay [10] was above 100 µM each time. Moreover, the TGI in assay [7], in [8] and in assay [9] was above 100 µM throughout.

As to `CCN1C(=O)N(CC)C2C1NN=c1s/c(=C\c3cccs3)c(=O)n12` (centres undefined), the GI50 in assay [1] is 0.154 µM; in assay [2], 0.506 µM; in assay [3], 0.396 µM; in assay [4], 0.445 µM; in assay [6] it was 0.0576 µM; in [10], 0.257 µM. Moreover, the GI50 was 0.245 µM in [7], above 100 µM in assay [8] and 0.424 µM in assay [9]. In addition, the TGI in assay [1], in assay [2], in [3], in [4], in [6] and in assay [10] was above 100 µM in each case. For the same molecule, the TGI in assay [7], in [8] and in [9] was above 100 µM each time.

For the molecule `O=C1OC(c2ccccc2)(c2ccccc2)c2ccc3ccc(F)cc3c21`, the TGI in [1], in [2], in assay [3], in assay [4], in assay [6] and in [10] was above 100 µM throughout. Besides, the TGI in assay [7], in [8] and in assay [9] was above 100 µM in each case.

`COc1cc2c3c(n(CCCCNC(=O)OC(C)(C)C)c(=O)c2cc1OC)-c1cc2c(cc1C3=O)OCO2`: the GI50 in assay [1], in [2], in assay [4], in [5], in [10] and in [7] was above 100 µM throughout. Besides, the GI50 in [8] and in assay [9] was above 100 µM in each case. In addition, the TGI in [1], in [2], in assay [4], in [5], in [10] and in assay [7] was above 100 µM in each case. In addition, the TGI in [8] and in [9] was above 100 µM each time.

The record behind these values is PubChem BioAssay (NCI).
